Patent US9796733B2, “Imidazo-pyrazine derivatives useful as soluble guanylate cyclase activators” (Merck Sharp & Dohme Corp., priority 2014, dated 2017)

Assays:
sGC α1/β1 heterodimer = biological target: T1, sGC α1/β1 heterodimer (Homo sapiens, UniProt Q02108+Q02153); experiment: Cell-based sGC functional assay (CASA assay): cGMP generation in CHO-K1/sGC cells, HTRF detection; conditions: for Emax: CHO-K1, percent activation relative to standard Compound A in CHO-K1/sGC cells, read-out: % Act.; for EC50: inflection point (IP) of cGMP generation in CHO-K1/sGC cells, 4P fit, activity expressed as percentage of Compound A
T1 construct: expressed in transfected cells; host or cells: CHO-K1 (clone #7, CHO-K1/sGC)
T1 sequence (Q02108 1-690): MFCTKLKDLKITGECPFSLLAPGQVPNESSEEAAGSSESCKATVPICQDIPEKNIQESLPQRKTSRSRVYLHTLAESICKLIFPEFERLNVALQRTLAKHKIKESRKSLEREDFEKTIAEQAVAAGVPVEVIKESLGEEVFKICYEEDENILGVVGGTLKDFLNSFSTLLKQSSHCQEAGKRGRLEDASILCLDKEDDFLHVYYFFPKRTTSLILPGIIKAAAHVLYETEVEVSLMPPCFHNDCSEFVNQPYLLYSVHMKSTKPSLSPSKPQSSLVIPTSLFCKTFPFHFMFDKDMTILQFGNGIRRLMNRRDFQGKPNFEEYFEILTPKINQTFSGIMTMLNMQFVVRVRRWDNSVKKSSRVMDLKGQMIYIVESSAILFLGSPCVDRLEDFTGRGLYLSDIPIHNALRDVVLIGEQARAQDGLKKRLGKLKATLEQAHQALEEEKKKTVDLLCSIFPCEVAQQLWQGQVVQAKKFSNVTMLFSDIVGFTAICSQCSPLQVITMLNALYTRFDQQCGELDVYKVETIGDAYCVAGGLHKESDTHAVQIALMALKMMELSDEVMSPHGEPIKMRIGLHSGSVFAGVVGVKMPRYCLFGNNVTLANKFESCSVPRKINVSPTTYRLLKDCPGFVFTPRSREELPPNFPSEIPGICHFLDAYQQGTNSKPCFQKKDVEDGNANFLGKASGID
T1 sequence (Q02153 1-619): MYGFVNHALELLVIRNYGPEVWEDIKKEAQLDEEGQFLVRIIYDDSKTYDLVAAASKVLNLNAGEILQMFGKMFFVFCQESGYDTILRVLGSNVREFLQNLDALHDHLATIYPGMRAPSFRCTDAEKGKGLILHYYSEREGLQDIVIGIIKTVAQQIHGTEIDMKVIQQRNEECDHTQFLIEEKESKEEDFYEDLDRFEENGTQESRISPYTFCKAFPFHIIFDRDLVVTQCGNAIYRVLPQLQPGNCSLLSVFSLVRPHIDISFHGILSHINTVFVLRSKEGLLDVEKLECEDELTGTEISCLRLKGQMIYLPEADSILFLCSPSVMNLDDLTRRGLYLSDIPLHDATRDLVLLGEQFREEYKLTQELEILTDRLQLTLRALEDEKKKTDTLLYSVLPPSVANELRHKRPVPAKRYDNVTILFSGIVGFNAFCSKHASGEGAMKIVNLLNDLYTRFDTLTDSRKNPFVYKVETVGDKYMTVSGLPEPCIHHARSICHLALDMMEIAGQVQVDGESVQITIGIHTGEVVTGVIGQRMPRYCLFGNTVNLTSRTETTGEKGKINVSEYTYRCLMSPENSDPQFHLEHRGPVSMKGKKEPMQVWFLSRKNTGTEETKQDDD
In short: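 cGMP was quantified by HTRF after 1 hr, 37° C exposure of thawed CHO-K1 cells expressing sGC α1/β1 to compound, with or without 1 μM DETA-NO. IBMX (0.5 mM) blocked cGMP breakdown, and DMSO was 2.5% final. Percent of standard Compound A's maximal cGMP was fitted (4P) for inflection point.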

[1] = tested on: Spontaneously hypertensive rats (SHR); experiment: Acute efficacy in spontaneously hypertensive rats (SHR): telemetry blood pressure lowering after a single oral dose; format: in vivo, rat
In short: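 Values are the maximum peak fall in systolic pressure after one oral dose (mpk), computed hourly against baseline from a vehicle dose given the day before. Rats were conscious, male, spontaneously hypertensive, with femoral-aortic telemetry recording 30 s every 10 min, 14 days post-surgery.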

Emax (sGC α1/β1 heterodimer) | EC50 (sGC α1/β1 heterodimer) | Compound | Maximum peak decrease of systolic blood pressure (SBP) in SHR, Cat. ([1]; P.O. 3.0 mpk) | Maximum peak decrease of systolic blood pressure (SBP) in SHR, Cat. ([1]; P.O. 0.3 mpk) | Maximum peak decrease of systolic blood pressure (SBP) in SHR, Cat. ([1]; P.O. 1.0 mpk)
129% | 43 nM | CCCc1nc(-c2nc(N)c3c(n2)NC(=O)C3(c2ccc(Cl)cc2F)C2CC2)cn2ccnc12 (stereo not drawn) [Example 360A, 4-amino-5-(4-chloro-2-fluorophenyl)-5-cyclopropyl-2-(8-propylimidazo[1,2-a]pyrazin-6-yl)-5H-pyrrolo[2,3-d]pyrimidin-6(7H)-one] | B (Category B=SBP in SHRs 20-40 mmHg) |  | 
109% | 13 nM | CCCCc1nc(-c2nc(N)c3c(n2)NC(=O)C3(c2ccc(Cl)cc2F)C2CC2)cn2ccnc12 (stereo not drawn) [Example 369A, 4-amino-2-(8-butylimidazo[1,2-a]pyrazin-6-yl)-5-(4-chloro-2-fluorophenyl)-5-cyclopropyl-5H-pyrrolo[2,3-d]pyrimidin-6(7H)-one] |  | B (Category B=SBP in SHRs 20-40 mmHg) | 
187% | 239 nM | CCCCc1nc(-c2nc(N)c3c(n2)NC(=O)C3(c2ncc(Cl)cn2)C2CC2)cn2ccnc12 (stereo not drawn) [Example 372A, 4-amino-2-(8-butylimidazo[1,2-a]pyrazin-6-yl)-5-(5-chloropyrimidin-2-yl)-5-cyclopropyl-5H-pyrrolo[2,3-d]pyrimidin-6(7H)-one] |  |  | C (Category C=SBP in SHRs>40 mmHg)
114% | 26 nM | Nc1nc(-c2cn3ccnc3c(CCCC(F)(F)F)n2)nc2c1C(c1ncc(Cl)cn1)(C1CC1)C(=O)N2 (stereo not drawn) [Example 373A, 4-amino-5-(5-chloropyrimidin-2-yl)-5-cyclopropyl-2-(8-(4,4,4-trifluorobutyl)imidazo[1,2-a]pyrazin-6-yl)-5H-pyrrolo[2,3-d]pyrimidin-6(7H)-one] |  | A (Category A=SBP in SHRs<20 mmHg) | 

Second part, the compound before the results:

Compound | Emax (sGC α1/β1 heterodimer) | EC50 (sGC α1/β1 heterodimer) | Maximum peak decrease of systolic blood pressure (SBP) in SHR, Cat. ([1]; P.O. 3.0 mpk) | Maximum peak decrease of systolic blood pressure (SBP) in SHR, Cat. ([1]; P.O. 0.3 mpk) | Maximum peak decrease of systolic blood pressure (SBP) in SHR, Cat. ([1]; P.O. 1.0 mpk)
Nc1nc(-c2cn3ccnc3c(CCC(F)(F)C(F)(F)F)n2)nc2c1C(c1cncc(F)c1)(C1CC1)C(=O)N2 (stereo not drawn) [Example 353B, 4-amino-5-cyclopropyl-5-(5-fluoropyridin-3-yl)-2-(8-(3,3,4,4,4-pentafluorobutyl)imidazo[1,2-a]pyrazin-6-yl)-5H-pyrrolo[2,3-d]pyrimidin-6(7H)-one] | 168% | 1030 nM | A (Category A=SBP in SHRs<20 mmHg) |  | 
Nc1nc(-c2cn3ccnc3c(CCCC(F)(F)F)n2)nc2c1C(c1cncc(F)c1)(C1CC1)C(=O)N2 (stereo not drawn) [Example 356B, 4-amino-5-cyclopropyl-5-(5-fluoropyridin-3-yl)-2-(8-(4,4,4-trifluorobutyl)imidazo[1,2-a]pyrazin-6-yl)-5H-pyrrolo[2,3-d]pyrimidin-6(7H)-one] | 108% | 487 nM | A (Category A=SBP in SHRs<20 mmHg) |  | 
Nc1nc(-c2cn3ccnc3c(CCCC(F)(F)F)n2)nc2c1C(c1ccccn1)(C1CC1)C(=O)N2 (stereo not drawn) [Example 383B, 4-Amino-5-cyclopropyl-5-(pyridin-2-yl)-2-(8-(4,4,4-trifluorobutyl)imidazo[1,2-a]pyrazin-6-yl)-5H-pyrrolo[2,3-d]pyrimidin-6(7H)-one] | 137% | 98 nM |  |  | B (Category B=SBP in SHRs 20-40 mmHg)
